Laboratory results published in patent US10813933B2, “Therapeutic agent for lung cancer that has acquired EGFR-TKI resistance” (JAPANESE FOUNDATION FOR CANCER RESEARCH, priority 2016, dated 2020).
“And” between values parts separate entries of the source, which are not always exact repeats. Equal values may be shown once. Read-outs that look alike come from different tables or passages of the source.

Legend:
[1] = test system: EGFR mutant expressing Ba/F3 cells; test: Cell viability, ALK inhibitors on Ba/F3 with any of the EGFR mutants (summary statements); assay type: cell-based, mouse; conditions: FIG. 6A-D, FIG. 7A-D
[2] = test system: EGFR signal transductions in EGFR mutants expressing Ba/F3 cells; test: Western blotting of EGFR signal transductions in EGFR mutants expressing Ba/F3 cells (summary statements); assay type: cell-based, mouse; conditions: FIG. 8A-D; L858R-based lines, not shown
[3] = biological target: EGFR L858R mutant expressing Ba/F3 cells (Homo sapiens, UniProt P00533, L858R, cells depend on it); test: CellTiter-Glo cell viability, Ba/F3 EGFR mutant; assay type: cell-based, mouse; conditions: read-out: IC50 (nM) L858R
EGFR L858R mutant expressing Ba/F3 cells, sequence (P00533 whole entry L858R): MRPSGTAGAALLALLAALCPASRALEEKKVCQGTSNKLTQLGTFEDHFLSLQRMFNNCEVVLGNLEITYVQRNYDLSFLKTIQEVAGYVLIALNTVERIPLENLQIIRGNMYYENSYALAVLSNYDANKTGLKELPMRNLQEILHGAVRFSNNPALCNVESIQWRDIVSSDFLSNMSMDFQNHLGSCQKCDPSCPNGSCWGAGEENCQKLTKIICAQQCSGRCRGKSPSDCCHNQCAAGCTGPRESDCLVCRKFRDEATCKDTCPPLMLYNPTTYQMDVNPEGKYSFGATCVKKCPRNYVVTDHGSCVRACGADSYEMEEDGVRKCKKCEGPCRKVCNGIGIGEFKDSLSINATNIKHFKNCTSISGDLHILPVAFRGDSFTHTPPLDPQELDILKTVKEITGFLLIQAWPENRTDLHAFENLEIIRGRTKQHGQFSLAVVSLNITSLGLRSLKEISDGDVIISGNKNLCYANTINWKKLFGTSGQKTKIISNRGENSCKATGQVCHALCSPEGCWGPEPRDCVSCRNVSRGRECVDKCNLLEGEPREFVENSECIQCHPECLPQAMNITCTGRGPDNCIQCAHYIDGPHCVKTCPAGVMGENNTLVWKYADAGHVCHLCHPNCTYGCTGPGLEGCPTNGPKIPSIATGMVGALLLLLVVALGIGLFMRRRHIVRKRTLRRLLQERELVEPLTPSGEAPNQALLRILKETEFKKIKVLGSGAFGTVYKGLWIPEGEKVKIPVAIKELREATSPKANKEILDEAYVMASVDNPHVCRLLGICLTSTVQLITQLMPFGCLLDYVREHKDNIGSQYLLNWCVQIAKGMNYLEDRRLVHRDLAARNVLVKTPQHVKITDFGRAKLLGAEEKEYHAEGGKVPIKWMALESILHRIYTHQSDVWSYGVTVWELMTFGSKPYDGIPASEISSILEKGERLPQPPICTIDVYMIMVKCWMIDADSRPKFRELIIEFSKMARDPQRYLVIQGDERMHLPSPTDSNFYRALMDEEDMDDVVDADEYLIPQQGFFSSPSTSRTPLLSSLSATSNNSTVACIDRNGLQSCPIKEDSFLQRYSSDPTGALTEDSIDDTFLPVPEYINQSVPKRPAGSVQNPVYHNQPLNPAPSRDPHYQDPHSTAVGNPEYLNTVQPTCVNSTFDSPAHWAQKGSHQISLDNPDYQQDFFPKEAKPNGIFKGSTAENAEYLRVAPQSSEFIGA
Procedure: (§1) Ba/F3 mutation lines were prepared in the same manner as above to determine the cell viabilities by CellTiter-Glo assay.

[4] = biological target: EGFR T790M/L858R mutant expressing Ba/F3 cells (Homo sapiens, UniProt P00533, T790M/L858R, cells depend on it); test: CellTiter-Glo cell viability, Ba/F3 EGFR mutant; assay type: cell-based, mouse; conditions: Table 5, ALK inhibitors, read-out: IC50 (nM) T/L
EGFR T790M/L858R mutant expressing Ba/F3 cells, sequence (P00533 whole entry T790M/L858R): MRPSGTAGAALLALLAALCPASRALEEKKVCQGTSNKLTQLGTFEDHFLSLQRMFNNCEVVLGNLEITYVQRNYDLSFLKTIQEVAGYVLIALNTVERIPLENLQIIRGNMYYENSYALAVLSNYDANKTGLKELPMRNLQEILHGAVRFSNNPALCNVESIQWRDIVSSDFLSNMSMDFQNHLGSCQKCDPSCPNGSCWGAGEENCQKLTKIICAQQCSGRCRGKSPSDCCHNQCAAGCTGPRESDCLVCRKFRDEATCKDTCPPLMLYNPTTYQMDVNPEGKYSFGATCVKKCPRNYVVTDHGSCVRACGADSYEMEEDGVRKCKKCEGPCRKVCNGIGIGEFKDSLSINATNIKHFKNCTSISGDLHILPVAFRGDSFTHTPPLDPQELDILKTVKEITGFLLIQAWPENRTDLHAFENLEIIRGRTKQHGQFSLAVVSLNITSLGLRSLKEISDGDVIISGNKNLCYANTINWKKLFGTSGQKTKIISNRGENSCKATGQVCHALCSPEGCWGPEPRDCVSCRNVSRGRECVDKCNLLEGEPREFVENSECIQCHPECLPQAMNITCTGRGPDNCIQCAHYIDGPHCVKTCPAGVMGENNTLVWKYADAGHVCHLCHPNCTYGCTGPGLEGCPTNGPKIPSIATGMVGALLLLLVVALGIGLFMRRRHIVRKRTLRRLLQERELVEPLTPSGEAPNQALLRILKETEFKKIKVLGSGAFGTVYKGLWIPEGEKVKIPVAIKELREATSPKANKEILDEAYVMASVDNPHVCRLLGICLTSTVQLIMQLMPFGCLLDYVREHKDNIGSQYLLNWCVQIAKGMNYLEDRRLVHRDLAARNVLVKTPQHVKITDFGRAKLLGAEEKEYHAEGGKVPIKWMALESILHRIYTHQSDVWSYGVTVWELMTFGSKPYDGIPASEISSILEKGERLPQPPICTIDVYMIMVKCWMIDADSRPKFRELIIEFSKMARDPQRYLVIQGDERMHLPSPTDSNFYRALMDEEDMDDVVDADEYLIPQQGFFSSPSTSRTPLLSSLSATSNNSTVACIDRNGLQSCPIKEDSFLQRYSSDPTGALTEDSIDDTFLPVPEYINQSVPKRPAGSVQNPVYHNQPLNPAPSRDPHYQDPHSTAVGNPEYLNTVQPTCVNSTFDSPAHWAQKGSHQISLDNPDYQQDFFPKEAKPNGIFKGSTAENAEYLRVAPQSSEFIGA
Procedure: as §1

[5] = test system: phosphorylation of EGFR and downstream signal transductions in parental line PC9; test: Western blotting of EGFR signal, PC9; assay type: cell-based, human; conditions: FIG. 10A, 10D
[6] = test system: phosphorylation of EGFR and downstream signal transductions in T790M/exon 19 deletion mutant expressing PC9 cell line; test: Western blotting of EGFR signal, PC9 T790M; assay type: cell-based, human; conditions: FIG. 10B, 10D
[7] = test system: phosphorylation of EGFR and downstream signal transductions in triple-mutant expressing PC9 cell line; test: Western blotting of EGFR signal, PC9 triple-mutant; assay type: cell-based, human; conditions: FIG. 10C, 10D
[8] = biological target: EGFR exon 19 deletion mutant (del19) expressing Ba/F3 cells (Homo sapiens, UniProt P00533, DEL746-750, cells depend on it); test: CellTiter-Glo cell viability, Ba/F3 EGFR mutant
EGFR exon 19 deletion mutant (del19) expressing Ba/F3 cells, sequence (P00533 with tags, fused parts or gaps DEL746-750): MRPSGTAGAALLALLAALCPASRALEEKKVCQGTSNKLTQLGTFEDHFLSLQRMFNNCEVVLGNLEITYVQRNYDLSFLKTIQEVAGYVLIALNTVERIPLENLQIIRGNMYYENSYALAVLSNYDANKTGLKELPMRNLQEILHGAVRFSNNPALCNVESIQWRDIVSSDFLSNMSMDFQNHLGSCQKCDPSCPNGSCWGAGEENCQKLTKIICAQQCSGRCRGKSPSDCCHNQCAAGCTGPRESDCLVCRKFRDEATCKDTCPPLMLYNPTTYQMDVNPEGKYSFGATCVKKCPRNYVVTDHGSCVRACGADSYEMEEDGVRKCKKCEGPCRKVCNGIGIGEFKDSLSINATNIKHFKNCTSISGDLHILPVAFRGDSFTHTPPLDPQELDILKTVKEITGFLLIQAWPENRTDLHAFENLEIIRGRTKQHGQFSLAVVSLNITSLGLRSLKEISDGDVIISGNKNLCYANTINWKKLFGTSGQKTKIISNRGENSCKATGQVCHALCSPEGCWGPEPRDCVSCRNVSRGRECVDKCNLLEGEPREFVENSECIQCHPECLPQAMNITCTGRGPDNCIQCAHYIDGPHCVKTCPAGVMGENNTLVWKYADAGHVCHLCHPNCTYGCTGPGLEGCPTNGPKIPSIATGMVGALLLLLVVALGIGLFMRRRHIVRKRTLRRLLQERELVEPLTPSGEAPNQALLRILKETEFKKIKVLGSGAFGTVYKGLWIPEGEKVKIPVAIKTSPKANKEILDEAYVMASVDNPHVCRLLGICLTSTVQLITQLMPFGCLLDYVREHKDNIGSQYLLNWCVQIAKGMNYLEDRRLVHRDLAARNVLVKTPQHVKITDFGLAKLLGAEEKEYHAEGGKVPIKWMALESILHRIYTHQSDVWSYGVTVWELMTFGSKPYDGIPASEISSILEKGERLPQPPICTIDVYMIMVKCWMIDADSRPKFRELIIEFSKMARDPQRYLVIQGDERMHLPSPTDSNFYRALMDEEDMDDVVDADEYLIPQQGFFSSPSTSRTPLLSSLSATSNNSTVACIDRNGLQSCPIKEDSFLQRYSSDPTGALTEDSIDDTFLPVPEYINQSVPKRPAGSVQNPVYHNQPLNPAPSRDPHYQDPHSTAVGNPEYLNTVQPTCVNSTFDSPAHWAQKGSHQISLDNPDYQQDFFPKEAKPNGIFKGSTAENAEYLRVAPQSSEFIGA

[9] = biological target: EGFR T790M/exon 19 deletion mutant (T790M/del19) expressing Ba/F3 cells (Homo sapiens, UniProt P00533, DEL746-750/T790M, cells depend on it); test: CellTiter-Glo cell viability, Ba/F3 EGFR mutant
EGFR T790M/exon 19 deletion mutant (T790M/del19) expressing Ba/F3 cells, sequence (P00533 with tags, fused parts or gaps DEL746-750/T790M): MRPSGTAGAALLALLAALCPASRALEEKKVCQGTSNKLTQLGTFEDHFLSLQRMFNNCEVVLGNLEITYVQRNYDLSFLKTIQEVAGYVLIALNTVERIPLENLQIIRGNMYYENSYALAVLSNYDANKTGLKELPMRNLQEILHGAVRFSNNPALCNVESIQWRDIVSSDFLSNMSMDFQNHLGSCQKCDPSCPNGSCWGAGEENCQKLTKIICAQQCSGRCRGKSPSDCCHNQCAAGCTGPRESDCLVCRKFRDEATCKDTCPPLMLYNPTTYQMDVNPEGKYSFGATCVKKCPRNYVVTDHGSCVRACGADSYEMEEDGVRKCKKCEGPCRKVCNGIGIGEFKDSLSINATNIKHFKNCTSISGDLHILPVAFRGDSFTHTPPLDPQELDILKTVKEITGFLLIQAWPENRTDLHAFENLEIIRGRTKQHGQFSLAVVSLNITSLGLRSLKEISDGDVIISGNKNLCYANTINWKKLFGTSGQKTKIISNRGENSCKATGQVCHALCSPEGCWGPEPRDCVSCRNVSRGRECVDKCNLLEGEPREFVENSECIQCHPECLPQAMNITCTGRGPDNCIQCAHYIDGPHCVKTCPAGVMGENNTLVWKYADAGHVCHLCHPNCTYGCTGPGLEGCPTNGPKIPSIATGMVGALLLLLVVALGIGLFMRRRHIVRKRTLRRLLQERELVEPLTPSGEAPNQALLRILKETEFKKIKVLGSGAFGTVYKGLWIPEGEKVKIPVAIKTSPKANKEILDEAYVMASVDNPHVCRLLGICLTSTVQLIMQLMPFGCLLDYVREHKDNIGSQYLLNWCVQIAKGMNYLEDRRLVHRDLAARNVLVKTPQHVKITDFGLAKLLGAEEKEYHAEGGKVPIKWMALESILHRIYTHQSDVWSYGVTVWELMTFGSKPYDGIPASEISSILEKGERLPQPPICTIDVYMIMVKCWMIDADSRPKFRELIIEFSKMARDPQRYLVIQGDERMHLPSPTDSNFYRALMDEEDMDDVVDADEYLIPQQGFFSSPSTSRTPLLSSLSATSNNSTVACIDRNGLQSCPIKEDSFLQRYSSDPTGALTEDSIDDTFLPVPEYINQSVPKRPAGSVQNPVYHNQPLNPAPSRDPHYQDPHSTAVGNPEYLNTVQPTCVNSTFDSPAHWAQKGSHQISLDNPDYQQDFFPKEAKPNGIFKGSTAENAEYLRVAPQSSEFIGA

adenocarcinoma = conditions: cited from earlier work
[10] = test system: phosphorylation of EGFR and downstream signal transductions in T790M/del19 Ba/F3 cells; test: Western blotting of EGFR phosphorylation and downstream signal; assay type: cell-based, mouse; conditions: 10, 100, 1000 nM; FIG. 2E
[11] = test system: phosphorylation of EGFR and downstream signal transductions in L858R mutant expressing Ba/F3 cells; test: as above; assay type: cell-based, mouse; conditions: FIG. 4A
[12] = test system: phosphorylation of EGFR and downstream signal transductions in T790M/L858R mutant expressing Ba/F3 cells; test: as above; assay type: cell-based, mouse; conditions: FIG. 4B
[13] = test system: human lung cancer cell line PC9 (EGFR exon 19 deletion mutant); assay type: cell-based
[14] = test system: T790M/exon 19 deletion mutant expressing PC9 cell line; assay type: cell-based, human
[15] = test system: A431 wherein EGFR is amplified; test: Cell growth of wild type EGFR expressing cells; assay type: cell-based, human; conditions: FIG. 11
Procedure: The analysis was carried out using A431 wherein EGFR is amplified and A549 and H460 which have a mutation at K-ras. A431 is a cell line derived from a human epithelioid cell cancer and A549 and H460 are cell lines derived from human lung cancers. Note that, EGFR has no mutations despite A431 being amplified, and EGFR also has no mutations in A549 and H460.

[16] = test system: EGFR T790M/exon19 deletion mutant expressing PC9 cells; test: Balb-c nu/nu mice transplanted with EGFR mutant expressing PC9; assay type: in vivo, mouse
Procedure: The tumor volume was measured in the same manner as above.
The results are shown from 2 mice per group.

[17] = test system: Ba/F3 cells expressing the T790M/del19 mutant; test: SCID mice transplanted with EGFR mutant expressing Ba/F3; conditions: 50 mg/kg osimertinib, 75 mg/kg brigatinib, oral once daily; FIG. 12B
[18] = test system: exon 19 deletion mutation; conditions: cited from earlier work
[19] = read-out: IC50 (nM) Del19, Table 4, ALK inhibitors
[20] = read-out: IC50 (nM) T/D, Table 4, ALK inhibitors, T790M/del19

SMILES: COc1cc(N2CCC(N3CCN(C)CC3)CC2)ccc1Nc1ncc(Cl)c(Nc2ccccc2S(=O)(=O)C(C)C)n1 [TAE684]
- cell growth suppression effect on Ba/F3 with EGFR mutant having any of the mutations (in words) [1]: did not substantially demonstrate the cell growth suppression effect
- inhibitory activity against the EGFR signal transductions (in words) [2]: did not substantially demonstrate the inhibitory effect on the EGFR signal transductions even when treated at a high concentration of 1 μM

SMILES: COc1cc(N2CCC(N)CC2)ccc1Nc1ncc(Cl)c(-c2c[nH]c3ccccc23)n1 [AZD3463]
- GI50 ([3]; Table 5, ALK inhibitors): 287 nM
- GI50 [4]: 184 nM
- cell growth suppression effect on Ba/F3 with EGFR mutant having any of the mutations (in words) [1]: strong cell growth suppression effects
- suppression of phosphorylation of EGFR and downstream signal (in words) [5]: confirmed to have the effect of suppressing the phosphorylation of EGFR
- suppression of phosphorylation of EGFR and downstream signal (in words) [6]: confirmed to have the effect of suppressing the phosphorylation of EGFR
- suppression of phosphorylation of EGFR and downstream signal (in words) [7]: had the effect of suppressing the phosphorylation of the EGFR signal transductions
- GI50 [8, 19]: 90 nM
- GI50 [9, 20]: 175 nM

SMILES: COc1cc(N2CCC(N(C)C)CC2)ccc1Nc1ncc(Cl)c(Nc2ccccc2P(C)(C)=O)n1 [AP26113-analogue, AP26113-analog]
- GI50 ([3]; Table 5, ALK inhibitors): 92.1 nM
- GI50 [4]: 36 nM
- cell growth suppression effect on Ba/F3 with EGFR mutant having any of the mutations (in words) [1]: strong cell growth suppression effects
- inhibitory activity against the EGFR signal transductions (in words) [2]: demonstrated the inhibitory activity against the EGFR signal transductions
- suppression of phosphorylation of EGFR and downstream signal (in words) [5]: the effect was weaker compared to afatinib
- suppression of phosphorylation of EGFR and downstream signal (in words) [6]: equal suppression effect to brigatinib
- suppression of phosphorylation of EGFR and downstream signal (in words) [7]: demonstrated the suppression effects on the phosphorylation of EGFR
- GI50 [8, 19]: 36.9 nM
- GI50 [9, 20]: 139 nM

SMILES: COc1cc(N2CCC(N3CCN(C)CC3)CC2)ccc1Nc1ncnc(Nc2ccccc2S(=O)(=O)C(C)C)n1 [ASP3026]
- GI50 ([3]; Table 5, ALK inhibitors): 948 nM
- GI50 [4]: 1690 nM
- cell growth suppression effect on Ba/F3 with EGFR mutant having any of the mutations (in words) [1]: did not substantially demonstrate the cell growth suppression effect
- inhibitory activity against the EGFR signal transductions (in words) [2]: did not substantially demonstrate the inhibitory effect on the EGFR signal transductions even when treated at a high concentration of 1 μM
- GI50 [8, 19]: 450 nM
- GI50 [9, 20]: 2170 nM

SMILES: COc1cc2ncnc(Nc3ccc(F)c(Cl)c3)c2cc1OCCCN1CCOCC1 [gefitinib]
- PFS (progression-free survival) (adenocarcinoma; EGFR gene mutation-positive group): 9.5 months
- PFS (progression-free survival) (adenocarcinoma; mutation negative group): 1.5 months

SMILES: Cc1cc(Nc2ncc(Cl)c(Nc3ccccc3S(=O)(=O)C(C)C)n2)c(OC(C)C)cc1C1CCNCC1 [ceritinib]
- GI50 ([3]; Table 5, ALK inhibitors): 1160 nM
- GI50 [4]: 685 nM
- cell growth suppression effect on Ba/F3 with EGFR mutant having any of the mutations (in words) [1]: did not substantially demonstrate the cell growth suppression effect
- inhibitory activity against the EGFR signal transductions (in words) [2]: did not substantially demonstrate the inhibitory effect on the EGFR signal transductions even when treated at a high concentration of 1 μM
- GI50 [8, 19]: 524 nM

SMILES: C=CC(=O)Nc1cc(Nc2nccc(-c3cn(C)c4ccccc34)n2)c(OC)cc1N(C)CCN(C)C [osimertinib]
- suppression of phosphorylation of EGFR and downstream signal (in words) [10]: strongly suppressed the phosphorylation of EGFR
- suppression of phosphorylation of EGFR and downstream signal (in words) [11]: suppression effect, despite being weaker than afatinib
- suppression of phosphorylation of EGFR and downstream signal (in words) [12]: strongest suppression effect
- cell growth suppression effect (in words) [13]: demonstrated the cell growth suppression effects
- cell growth suppression effect (in words) [14]: extremely strong cell growth suppression effect
- suppression of phosphorylation of EGFR and downstream signal (in words) [5]: also very strongly suppressed the phosphorylation
- suppression of phosphorylation of EGFR and downstream signal (in words) [6]: demonstrated the effects of suppressing the phosphorylation
- suppression of phosphorylation of EGFR and downstream signal (in words) [7]: neither of afatinib, osimertinib, or gefitinib demonstrated the suppression effect
- cell growth suppression (in words) [15]: suppress the cell growth
- effect on the tumor growth (tumor volume, in words) ([16]; 50 mg/kg osimertinib, 75 mg/kg brigatinib, oral once daily, FIG. 13A): notable effect on the tumor growth
- survival (Kaplan-Meier, in words) ([16]; FIG. 13B): alive during the observation period
- tumor growth suppression effect (tumor volume, in words) [17]: had the effect

SMILES: COc1cc(N2CCC(N3CCN(C)CC3)CC2)ccc1Nc1ncc(Cl)c(Nc2ccccc2P(C)(C)=O)n1 [brigatinib]
- GI50 ([3]; egfr l858r mutant expressing ba/f3 cells): 207 nM and 133 nM
- GI50 ([8]; read-out: IC50 (nM) Del19, egfr exon 19 deletion mutant (del19) expressing ba/f3 cells): 43.7 nM
- GI50 ([8]; read-out: IC50 (nM) del19, egfr exon 19 deletion mutant (del19) expressing ba/f3 cells): 43.7 nM
- GI50 ([9]; read-out: IC50 (nM) T790M/del19, egfr t790m/exon 19 deletion mutant (t790m/del19) expressing ba/f3 cells): 150 nM
- GI50 ([9]; read-out: IC50 (nM) T/D, egfr t790m/exon 19 deletion mutant (t790m/del19) expressing ba/f3 cells): 150 nM

SMILES: O=C(Nc1nccs1)C(c1cc(F)ccc1O)N1Cc2ccccc2C1=O (centres unmarked) [EAI045]
- effectiveness on the exon 19 deletion mutation (in words) [18]: not effective on the exon 19 deletion mutation
